Measurements from US10077246B2, “Tricyclic prodrugs” (Glactone Pharma Development AB, priority 2014, dated 2018).

What was measured:
[1] = Chemical stability in phosphate buffered saline; type: physicochemical; conditions: for chemical stability in 0.1 M PBS (in words): 0.1 M PBS (pH 7.4); for half-life at 10 μM: 0.1 M phosphate buffered saline, 0.1 M PBS pH 7.4, 10 μM, room temperature
Procedure: The chemical stability of test compounds was determined in 96-well plate format. Compounds in DMSO stock solutions were diluted (n=2) in the required matrix (0.1 M phosphate buffered saline) to a concentration of 10 μM (2% DMSO final) and mixed at room temperature on an orbital shaker, with aliquots removed at 2 and 4 hours for testing. DMSO, containing an analytical internal standard, was added to the aliquots, vortex-mixed and analysed immediately by LC-MS/MS. Equivalent T=0 samples were also included, with sample preparation staggered to allow sequential injections of timed aliquots and the T=0 samples.
The amount of compound remaining (expressed as %) was determined from the MS response in each sample relative to that in the T=0 samples (normalized for internal standard).
Ln plots of the % remaining were used to determine the half-life of compound disappearance from the relationship:
t1/2 (min)=−0.693/λ, where λ is the slope of the Ln concentration vs time curve.

[2] = Pharmacokinetic (PK) study in mice, oral dosing, galiellalactone quantified in plasma; type: in vivo; conditions: for AUC 0-t / AUC 0-∞ / plasma exposure of galiellalactone compared to oral administration of galiellalactone itself (in words): oral 10 mg/kg; for AUC 0-t / AUC 0-∞: galiellalactone (GL) in plasma; for AUC 0-t: 0 minutes to last quantifiable data point; for AUC 0-∞: extrapolated to infinity
Procedure: The usefulness of the compounds, as defined in the embodiments herein, as prodrugs to enhance the plasma exposure of tricyclic compounds that may be used treating, revoking, mitigating, alleviating and/or preventing different forms of cancer, were evaluated in an in vivo pharmacokinetic (PK) study in mice.
Doses of the test items were prepared at a drug concentration of 0.5 mg/mL in 5% DMSO in 50 mM citrate buffer (citric acid/sodium citrate), pH 4.0.
Oral doses were administered in a volume of 20 mL/kg (10 mg/kg) to groups of 24 mice and blood samples taken, under terminal barbiturate anaesthesia, at eight time-points out to 8 hours post-dose (n=3 mice per time-point).
Blood samples were transferred to tubes containing EDTA as anticoagulant and, as soon as practicable after collection, samples were centrifuged to yield plasma which was immediately frozen awaiting analysis. Following blood collection, brains were removed from all animals for possible future analysis and immediately frozen by immersion in liquid nitrogen. All samples were analyzed using LC-MS/MS.
Plasma proteins were precipitated and compounds extracted by the addition of three volumes of acetonitrile containing analytical internal standard (reserpine). Samples were centrifuged for 30 minutes at 3452 g in a Sorvall bench centrifuge and the supernatant fractions removed for MS analysis.
Quantification of the active compound e.g. galiellalactone, was by extrapolation from calibration lines prepared in control mouse plasma and analyzed concurrently with experimental samples and Quality Control (QC) samples prepared in control mouse plasma. If the compounds were instable in mouse plasma, calibration lines were constructed in water for qualitative MS comparison with any signal seen in plasma samples.
Pharmacokinetic parameters of the test items were determined using the mean data from the n=3 mice at each time-point. Non-compartmental analysis was performed using the software package PK Solutions 2.0 from Summit Research Services. AUC values were calculated by the trapezoidal method.
AUC 0-t: Area under the plasma drug concentration/time curve from 0 minutes to last quantifiable data point
AUC 0-∞: Area under the curve from 0 minutes extrapolated to infinity

[3] = tested on: STAT3 expressing DU145 prostate cancer cells; conditions: Prostate 68:269-280 (2008); cited from earlier work
DU145 = assay: WST-1 cell proliferation assay, DU145; type: cell-based; conditions: DU145 (pSTAT3 +), 72 hours/10 μM, percent of untreated control cells
Procedure: (§1) The functional activity of example 15 in comparison to galiellalactone was evaluated using WST-1 proliferation assay (J. Biol. Chem. 2014, 289:15969-15978) on DU145, PC-3, LNCaP or IL-6 stimulated LNCaP. The cells were cultured in 96-well plates (2000 cells/well in 200 μl of medium) and allowed to set for 24 h. The cells were treated with 10 μM of 4α-fluoro-galiellalactone or galiellalactone for 72 h. Samples were made in triplicate. 20 μl WST-1 solution (Roche Applied Science) was added per well and incubated at 37° C. for 4 h. The absorbance of each well was measured using a scanning multi-well spectrophotometer, ELISA reader at a wavelength of 450 nm and reference wavelength of 690 nm. The results presented in Table 3 below are presented as percent of untreated control cells.

IL-6 stimulated LNCaP = assay: WST-1 cell proliferation assay, IL-6 stimulated LNCaP; type: cell-based; conditions: LNCaP-IL6 (pSTAT3 +), 72 hours/10 μM, percent of untreated control cells
Procedure: as §1

PC-3 = assay: WST-1 cell proliferation assay, PC-3; type: cell-based; conditions: PC3 (pSTAT3 −), 72 hours/10 μM, percent of untreated control cells
Procedure: as §1

LNCaP = assay: WST-1 cell proliferation assay, LNCaP; type: cell-based; conditions: LNCaP (pSTAT3 −), 72 hours/10 μM, percent of untreated control cells
Procedure: as §1

IL-6/STAT3 signaling = conditions: cited from earlier work
STAT3 = assay: WST-1 proliferation, pSTAT3 negative versus pSTAT3 positive cell lines; type: cell-based; conditions: 10 μM; pSTAT3 negative PC3, LNCaP versus pSTAT3 positive cells
Procedure: as §1
On the other hand, the pSTAT3 positive cells are equally sensitive to 4α-fluoro-galiellalactone and galiellalactone.

Structure (SMILES) | AUC 0-t [2] [μg GL/mL•min] | AUC 0-∞ [2] [μg GL/mL•min] | half-life at 10 μM [1] [h] | other results
COC(=O)[C@H](CS[C@H]1C2C(=O)O[C@@H]3CC[C@H](C[C@@H]1C)[C@]23O)NC(=O)[C@@H](N)C(C)C (stereo partly drawn) [Example 14, 3β-(N-(L-valine)-L-cysteinemethyl ester)-2aβ,3-dihydrogaliellalactone] | 97 | 101 |  | chemical stability in 0.1 M PBS (in words) [1]: chemically stable
C[C@@H]1C=C2C(=O)O[C@@H]3CC[C@H](C1)[C@]23O [Galiellalactone, (−)-Galiellalactone, reference compound] | 5 | 6 |  | proliferation of DU145 prostate cancer cells (in words) [3]: inhibits the proliferation; % Remaining Proliferation (DU145): 18%; % Remaining Proliferation (IL-6 stimulated LNCaP): 17%; % Remaining Proliferation (PC-3): 31%; % Remaining Proliferation (LNCaP): 77%; inhibition of IL-6/STAT3 signaling (IL-6/STAT3 signaling): submicromolar; AUC(0-inf) ([2]; mouse, oral administration 10 mg/kg, plasma galiellalactone): 95 ng·h/mL
COC(=O)C(N)CS[C@H]1C2C(=O)O[C@@H]3CC[C@H](C[C@@H]1C)[C@]23O (stereo partly drawn) [reference compound] |  |  | 0.367 | 
COC(=O)[C@H](CS[C@H]1C2C(=O)O[C@@H]3CC[C@H](C[C@@H]1C)[C@]23O)NC(=O)OC(C)(C)C (stereo partly drawn) [Example 6, 3β-(N-(tert-butylcarbonate)-L-cysteinemethyl ester)-2aβ,3-dihydrogaliellalactone] | 11 | 17 | > 2.5 | 
COC(=O)[C@H](CS[C@H]1C2C(=O)O[C@@H]3CC[C@H](C[C@@H]1C)[C@]23O)NC(=O)c1ccccc1F (stereo partly drawn) [Example 13, 3β-(N-(2-fluorobenzoyl)-L-cysteinemethyl ester)-2aβ,3-dihydrogaliellalactone] | 7.8 | 11 |  | 
C[C@H]1C[C@H]2CC[C@H]3OC(=O)C([C@@H]1SCCS(=O)(=O)[O-])[C@@]23O.[Na+] (stereo partly drawn) [Example 8, 3β-(ethyl sulphonate)-2aβ,3-dihydrogaliellalactone sodium] |  |  | > 2.5 | 
C[C@@]1(F)C=C2C(=O)O[C@@H]3CC[C@H](C1)[C@]23O [Example 15, 4α-fluoro-galiellalactone] |  |  |  | % Remaining Proliferation (DU145): 16%; % Remaining Proliferation (IL-6 stimulated LNCaP): 20%; % Remaining Proliferation (PC-3): 68%; % Remaining Proliferation (LNCaP): 105%; selectivity for STAT3 compared with galiellalactone (in words) (STAT3): significantly more selective
COC(=O)[C@H](CS[C@H]1C2C(=O)O[C@@H]3CC[C@H](C[C@@H]1C)[C@]23O)NC(C)=O (stereo partly drawn) [Example 3, 3β-(N-acetyl L-cysteinemethyl ester)-2aβ,3-dihydrogaliellalactone] | 117 | 120 | > 2.5 | chemical stability in 0.1 M PBS (in words) [1]: chemically stable; plasma exposure of galiellalactone compared to oral administration of galiellalactone itself (in words) [2]: significantly improve
COC(=O)[C@H](CCS[C@H]1C2C(=O)O[C@@H]3CC[C@H](C[C@@H]1C)[C@]23O)NC(C)=O (stereo partly drawn) [Example 12, 3β-(N-acetyl-L-homocysteinemethyl ester)-2aβ,3-dihydrogaliellalactone] | 150 | 155 |  | 
C[C@H]1C[C@H]2CC[C@H]3OC(=O)C([C@@H]1Sc1ccccc1)[C@@]23O (stereo partly drawn) [Example 2, 3β-(Phenylthio)-2aβ,3-dihydrogaliellalactone] | 36 | 41 |  | 
C[C@H]1C[C@H]2CC[C@H]3OC(=O)C([C@@H]1SCC(N)C(=O)O)[C@@]23O (stereo partly drawn) [reference compound] |  |  | 0.233 | 
C[C@H]1C[C@H]2CC[C@H]3OC(=O)C([C@@H]1N1CCCC1)[C@@]23O.Cl (stereo partly drawn) [drawing 42, 3β-(N-pyrrolidine)-2aβ,3-dihydrogaliellalactone, reference compound] | 2.2 | 2.5 |  | chemical stability in 0.1 M PBS (in words) [1]: very unstable; plasma exposure of galiellalactone compared to oral administration of galiellalactone itself (in words) [2]: do not increase the AUC
CC(=O)N[C@@H](CS[C@H]1C2C(=O)O[C@@H]3CC[C@H](C[C@@H]1C)[C@]23O)C(N)=O (stereo partly drawn) [Example 7, 3β-(N-acetyl L-cysteine amide)-2aβ,3-dihydrogaliellalactone] |  |  | > 2.5 | 
C[C@H]1C[C@H]2CC[C@H]3OC(=O)C([C@@H]1N1CCCC1)[C@@]23O.Cl (stereo partly drawn) [drawing 45, reference compound] |  |  | 0.3 | 
COC(=O)[C@H](CS[C@H]1C2C(=O)O[C@@H]3CC[C@H](C[C@@H]1C)[C@]23O)NC(=O)C(C)C (stereo partly drawn) [Example 5] | 15 | 21 | > 2.3 | 
C[C@H]1C[C@H]2CC[C@H]3OC(=O)C([C@@H]1SCC(NC(=O)CCC(N)C(=O)O)C(=O)NCC(=O)O)[C@@]23O (stereo partly drawn) [Example 9, 3β-(glutathione)-2aβ,3-dihydrogaliellalactone] |  |  | > 2.5 | 
CCCCS[C@H]1C2C(=O)O[C@@H]3CC[C@H](C[C@@H]1C)[C@]23O (stereo partly drawn) [Example 1, 3β-(Butyllthio)-2aβ,3-dihydrogaliellalactone] | 85 | 102 |  | 
CCOC(=O)[C@H](CS[C@H]1C2C(=O)O[C@@H]3CC[C@H](C[C@@H]1C)[C@]23O)NC(C)=O (stereo partly drawn) [Example 4, 3β-(N-acetyl L-cysteineethyl ester)-2aβ,3-dihydrogaliellalactone] | 20 | 22 |  | 
